# Assay results as given in US9447116B2, “Inhibitors of HIV replication” (priority 2010, dated 2016).
# Read-outs that look alike come from different tables or passages of the source.
# How the values were obtained:
# [1] = tested on: HIV-1 virus (NL4.3 strain); experiment: MT-2 based antiviral assay (S8737E); assay type: cell-based
# From the text: MT-2 Based Antiviral Assay (S8737E)
# This assay is designed to determine the effects of small molecules on the replication of HIV-1 in the lymphobastoid cell line, MT2, and is able to detect the antiviral effect of compounds acting at any stage of the HIV-1 replication cycle. The assay, along with its associated cytotoxicity assay, was described in detail in 2005 in a paper by Cao et al (Antimicrobial Agents and Chemotherapy 2005; 49(9), p 3833-3841).
# MT2 cells are infected with the HIV-1 virus (NL4.3 strain; Adachi et al., Journal of Virology 1986) and transferred to assay plates containing serial dilutions of compounds to be tested. The assay plates are incubated for 3 days (MT2) to allow for several rounds of viral replication/infection to take place. At the end of this time, supernatant is transferred into new plates containing JC53BL cells.
# JC53BL cells express CXCR4, CCR5 and CD4 receptors, and HIV-1-LTR-β-Gal. Under normal culture conditions undetectable levels of β-Galactosidase are expressed, but in the presence of HIV-1, the viral Tat protein is able to activate the HIV-1-LTR in the JC53BL cells resulting in the increased expression of the β-Gal enzyme. The expression can be measured using the ‘FluorAce β-Galactosidase reporter’ assay. The levels of β-Gal are directly proportional to the levels of Tat (up to a threshold) allowing virus quantification. Compounds that inhibit virus replication will give rise to a reduced signal and a dose-response curve for each compound can be generated. This is then used to determine the IC50 for each compound, a measure of the compound's potency.
# [2] = molecular target: T1, LEDGF-Integrase interaction (Human immunodeficiency virus type 1 group M subtype B, UniProt P12497); experiment: HTRF Interaction assay (S9118); set-up: species or system HIV; conditions: His6-tagged integrase and MBP-LEDGF integrase binding domain
# T1 construct: His6-tagged integrase (78 nM final concentration); purchased Prof; Zeger Debyser, Katholieke Universiteit Leuven (supplied by an academic laboratory, not a commercial vendor)
# From the text: • Adachi, A., Gendelman, H., Koenig, S., Folks, T., Wiley, R., Rabson, A. and Martin, M (1986) Production of acquired immunodeficency syndrome-associated retrovirus in human and nonhuman cells transfected with an infectious molecular clone, J. Virol., 59, 284-291. • Cao J, Isaacson J, Patick A K, Blair W S. (2005) High-throughput human immunodeficiency virus type 1 (HIV-1) full replication assay that includes HIV-1 Vif as an antiviral target Antimicrobial Agents and Chemotherapy; 49(9), p 3833-3841. Assay to Measure the LEDGF-Integrase Integration Inhibitory Activity of Compounds of the Invention HTRF Interaction Assay (S9118)
# An Homogeneous Time Resolved Fluorescence (HTRF) assay is performed in a manner similar to previous reports on HTRF protein assays as reviewed by Mathis (Clin. Chem., 2005). The assay procedure is performed as follows: reactions are performed in 20 μl final volume in 384-well black low volume microtiter plates (Greiner). The final reaction buffer contains 29 mM phosphase buffer (pH 7), 10 mM HEPES buffet (pH 7.4), 68.5 mM NaCl, 1.4 mM KCl, 400 mM KF 0.05% (w/v) pluronic acid (P104, Sigma Aldrich) and 1% (v/v) DMSO. His6-tagged integrase (78 nM final concentration) is incubated with […] fused to the Δ325 carboxy terminal integrase binding domain of LEDGF in the presence of compound for 2 hours at room temperature. Both these protein regents are supplied by Prof. Zeger Debyser of Katholleke Universiteit Leuven, Leuven, Belgium. The compounds are added at varying concentrations spanning a wide range from 0.1 up to 100 μM. Afterwards 8.3 nM of europium cryptate conjugated anti-MBP monoclonal antibody and 17 nM anti-His antibody conjugated with the acceptor fluorophore d2. Following a 2 hour room temperature incubation the plates are read on an EnVision™ microplate reader (Perkin Elmer) using an excitation wavelength of 320 nm. The ratio of fluorescence emitted at […] is used to assess the degree to which the protein-protein interaction had been inhibited.
# [3] = Human immunodeficiency virus 1, 72 h, read-out: Antiviral Activity (S8737E, μM), HIV-1 NL4.3 replication in MT2 cells, 3 days, β-Gal readout in JC53BL cells
SMILES,"IC50 [1, 3] [µM]",IC50 ([2]; table values) [µM],IC50 [2] [µM],"IC50 ([1]; read-out: Antiviral Activity (S8737E), HIV-1 NL4.3 replication in MT2 cells, 3 days, β-Gal readout in JC53BL cells) [µM]"
Cc1nc2sc3c(c2c(-c2cnc4cc[nH]c4c2)c1C(OC(C)(C)C)C(=O)O)CCCC3 (stereo not drawn) [Example 30],6.63,15.5,,
Cc1nc2sc3c(c2c(-c2cccc(CO)c2)c1C(OC(C)(C)C)C(=O)O)CCCC3 (stereo not drawn) [Example 27],4.64,57.5,,
Cc1nc2sc3c(c2c(-c2cccc4c2cnn4C)c1C(OC(C)(C)C)C(=O)O)CCCC3 (stereo not drawn) [Example 24],2.81,7.59,,
Cc1nc2sc3c(c2c(-c2ccc(C(F)(F)F)nc2)c1C(OC(C)(C)C)C(=O)O)CCCC3 (stereo not drawn) [Example 9],0.683,11.7,,
Cc1nc2sc3c(c2c(-c2ccc4cn[nH]c4c2)c1C(OC(C)(C)C)C(=O)O)CCCC3 (stereo not drawn) [Example 6],0.305,2.63,,
Cc1nc2sc3c(c2c(-c2ccc(N(C)C)nc2)c1C(OC(C)(C)C)C(=O)O)CCCC3 (stereo not drawn) [Example 29],5.73,64.6,,
"Cc1ccc(-c2c([C@H](OC(C)(C)C)C(=O)O)c(C)nc3sc4c(c23)CCCC4)c(F)c1 [Example 47, (2S)-tert-butoxy[4-(2-fluoro-4-methylphenyl)-2-methyl-5,6,7,8-tetrahydro[1]benzothieno[2,3-b]pyridin-3-yl]acetic acid]",0.071,,0.657,
"Cc1nc2sc3c(c2c(-c2ccc(Cl)cc2F)c1[C@H](OC(C)(C)C)C(=O)O)CCCC3 [Example 45, (2S)-tert-butoxy[4-(4-chloro-2-fluorophenyl)-2-methyl-5,6,7,8-tetrahydro[1]benzothieno[2,3-b]pyridin-3-yl]acetic acid]",0.023,,0.565,
Cc1cc(-c2c(C(OC(C)(C)C)C(=O)O)c(C)nc3sc4c(c23)CCCC4)ccn1 (stereo not drawn) [Example 37],13.9,> 100,,
Cc1nc2sc3c(c2c(-c2cccc(C#N)c2)c1C(OC(C)(C)C)C(=O)O)CCCC3 (stereo not drawn) [Example 26],4.51,> 100,,
CCOC(C(=O)O)c1c(C)nc2sc3c(c2c1-c1ccc2cn[nH]c2c1)CCCC3 (stereo not drawn) [Example 23],2.73,33.1,,
CCOC(C(=O)O)c1c(C)nc2sc3c(c2c1-c1cnn(CC)c1)CCCC3 (stereo not drawn) [Example 41],17.7,> 100,,
Cc1cc(C)n(-c2cccc(-c3c(C(OC(C)(C)C)C(=O)O)c(C)nc4sc5c(c34)CCCC5)c2)n1 (stereo not drawn) [Example 28],5.61,29.6,,
CCc1ccc(-c2c(C(OC(C)(C)C)C(=O)O)c(C)nc3sc4c(c23)CCCC4)c(O)c1 (stereo not drawn) [Example 5],0.155,2.7,,
Cc1nc2sc3c(c2c(-c2ccc4nccn4c2)c1C(OC(C)(C)C)C(=O)O)CCCC3 (stereo not drawn) [Example 17],1.78,> 100,,
Cc1nc2sc3c(c2c(-c2c[nH]c4nccc-4c2)c1C(OC(C)(C)C)C(=O)O)CCCC3 (stereo not drawn) [Example 36],12,> 100,,
CCOC(C(=O)O)c1c(C)nc2sc3c(c2c1-c1ccc2scnc2c1)CCCC3 (stereo not drawn) [Example 31],6.66,> 100,,
Cc1nc2sc3c(c2c(-c2ccc4cnn(C)c4c2)c1C(OC(C)(C)C)C(=O)O)CCCC3 (stereo not drawn) [Example 11],,12.2,,0.814
CCOC(C(=O)O)c1c(C)nc2sc3c(c2c1-c1ccccc1CO)CCCC3 (stereo not drawn) [Example 34],8.97,> 100,,
CCOC(C(=O)O)c1c(C)nc2sc3c(c2c1-c1ccccc1O)CCCC3 (stereo not drawn) [Example 25],4.07,> 100,,
Cc1nc2sc3c(c2c(-c2cnc4ccoc4c2)c1C(OC(C)(C)C)C(=O)O)CCCC3 (stereo not drawn) [Example 18],1.84,30.3,,

SMILES,"IC50 [1, 3] [µM]",IC50 ([2]; table values) [µM],IC50 [2] [µM],"IC50 ([1]; read-out: Antiviral Activity (S8737E), HIV-1 NL4.3 replication in MT2 cells, 3 days, β-Gal readout in JC53BL cells) [µM]"
Cc1nc2sc3c(c2c(-c2ccc4scnc4c2)c1C(OC(C)(C)C)C(=O)O)CCCC3 (stereo not drawn) [Example 4],0.282,3.48,,
CCOC(C(=O)O)c1c(C)nc2sc3c(c2c1-c1ccc2nsnc2c1)CCCC3 (stereo not drawn) [Example 21],2.17,64.8,,
"Cc1ccc(-c2c([C@@H](OC(C)(C)C)C(=O)O)c(C)nc3sc4c(c23)CCCC4)c(O)c1 (single isomer, unassigned) [48, first eluting enantiomer]",0.089,,4.12,
COc1cc(-c2c(C(OC(C)(C)C)C(=O)O)c(C)nc3sc4c(c23)CCCC4)ccn1 (stereo not drawn) [Example 14],1.24,28.4,,
CCOC(C(=O)O)c1c(C)nc2sc3c(c2c1-c1ccc2cnn(C)c2c1)CCCC3 (stereo not drawn) [Example 35],10.7,> 100,,
Cc1nc2sc3c(c2c(-c2ccc(C(F)F)cc2)c1[C@H](OC(C)(C)C)C(=O)O)CCCC3 [Example 49],0.081,,11,
"Cc1nc2sc3c(c2c(-c2ccc(Br)cc2)c1[C@H](OC(C)(C)C)C(=O)O)CCCC3 [Example 51, (S)-2-(4-(4-bromophenyl)-2-methyl-5,6,7,8-tetrahydrobenzo[4,5]thieno[2,3-b]pyridin-3-yl)-2-(tert-butoxy)acetic acid]",0.08,,1.16,
Cc1nc2sc3c(c2c(-c2ccc4cnn(C)c4c2)c1C(OC(C)(C)C)C(=O)O)CCCC3 (stereo not drawn) [Example 10],0.795,7.87,,
"Cc1ccc(-c2c(C(OC(C)(C)C)C(=O)O)c(C)nc3sc4c(c23)CCCC4)c(O)c1 (single isomer, unassigned) [48, second eluting enantiomer]",0.013,,0.576,
CCOC(C(=O)O)c1c(C)nc2sc3c(c2c1-c1ccc2c(cnn2C)c1)CCCC3 (stereo not drawn) [Example 43],18.9,> 100,,
Cc1nc2sc3c(c2c(-c2ccccc2O)c1C(OC(C)(C)C)C(=O)O)CCCC3 (stereo not drawn) [Example 16],1.73,57.4,,
COc1ccc(-c2c(C(OC(C)(C)C)C(=O)O)c(C)nc3sc4c(c23)CCCC4)cn1 (stereo not drawn) [Example 7],0.436,9.25,,
CCOC(C(=O)O)c1c(C)nc2sc3c(c2c1-c1ccc(C(F)(F)F)nc1)CCCC3 (stereo not drawn) [Example 33],8.19,> 100,,
"Cc1ccc(-c2c(C(OC(C)(C)C)C(=O)O)c(C)nc3sc4c(c23)CCOC4)cc1 (stereo not drawn) [Example 52, Tert-Butoxy-(2-methy-4-p-tolyl-5,8-dihydro-6H-7-oxa-9-thia-1-aza-fluoren-3-yl)-acetic acid]",0.189,,2.75,
Cc1nc2sc3c(c2c(-c2ccc4[nH]ncc4c2)c1C(OC(C)(C)C)C(=O)O)CCCC3 (stereo not drawn) [Example 32],7.65,> 100,,
Cc1nc2cc(-c3c(C(OC(C)(C)C)C(=O)O)c(C)nc4sc5c(c34)CCCC5)ccc2s1 (stereo not drawn) [Example 20],2.01,11.8,,
Cc1nc2ccc(-c3c(C(OC(C)(C)C)C(=O)O)c(C)nc4sc5c(c34)CCCC5)cc2s1 (stereo not drawn) [Example 22],2.73,12.8,,
Cc1nc2sc3c(c2c(-c2ccc4c(cnn4C)c2)c1C(OC(C)(C)C)C(=O)O)CCCC3 (stereo not drawn) [Example 12],0.941,5.13,,
CCn1cc(-c2c(C(OC(C)(C)C)C(=O)O)c(C)nc3sc4c(c23)CCCC4)cn1 (stereo not drawn) [Example 8],0.624,23.8,,
"Cc1nc2sc3c(c2c(-c2cncnc2)c1C(OC(C)(C)C)C(=O)O)CCCC3 (stereo not drawn) [Example 1, Tert-butoxy(2-methyl-4-pyrimidin-5-yl-5,6,7,8-tetrahydro[1]benzothieno[2,3-b]pyridin-3-yl)acetic acid]",> 20,,,
